Experimental data published in PubChem BioAssay (NCI).
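GI50 is the concentration that inhibits growth by half. TGI denotes the concentration required for complete inhibition of growth.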

Key:
Assay in all cases: NCI tumour cell line growth inhibition, 384-well format
HCT-15 colon = test system: HCT-15 colon
NCI-H23 lung = test system: NCI-H23 lung
EKVX NSCLC = test system: EKVX NSCLC
NCI-H522 lung = test system: NCI-H522 lung
SK-OV-3 ovarian = test system: SK-OV-3 ovarian
SNB-75 CNS = test system: SNB-75 CNS
MDA-MB-468 breast = test system: MDA-MB-468 breast
786-0 renal = test system: 786-0 renal
MDA-MB-231 breast = test system: MDA-MB-231 breast
OVCAR-3 ovarian = test system: OVCAR-3 ovarian
UO-31 renal = test system: UO-31 renal
SF-295 CNS = test system: SF-295 CNS
M14 melanoma = test system: M14 melanoma
A549 NSCLC = test system: A549 NSCLC
NCI-H322M lung = test system: NCI-H322M lung
SK-MEL-28 melanoma = test system: SK-MEL-28 melanoma
HL-60(TB) leukemia = test system: HL-60(TB) leukemia
CAKI-1 renal = test system: CAKI-1 renal
UACC-62 melanoma = test system: UACC-62 melanoma
OVCAR-4 ovarian = test system: OVCAR-4 ovarian
NCI/ADR-RES ovarian = test system: NCI/ADR-RES ovarian
SK-MEL-5 melanoma = test system: SK-MEL-5 melanoma
MDA-MB-435 melanoma = test system: MDA-MB-435 melanoma
MCF7 breast = test system: MCF7 breast
A498 renal = test system: A498 renal
RXF 393 renal = test system: RXF 393 renal
TK-10 renal = test system: TK-10 renal
HS 578T breast = test system: HS 578T breast

CCc1cc(C(N)=O)ccc1-n1nc(C(C)C)c2c(-n3cnc(-c4cnn(C)c4)c3)ccnc21
GI50 (HCT-15 colon): 534 nM | TGI (HCT-15 colon): > 100 µM | GI50 (NCI-H23 lung): 301 nM | TGI (NCI-H23 lung): 873 nM | GI50 (EKVX NSCLC): 712 nM | TGI (EKVX NSCLC): > 100 µM | GI50 (NCI-H522 lung): 210 nM | TGI (NCI-H522 lung): 458 nM | GI50 (SK-OV-3 ovarian): 738 nM | TGI (SK-OV-3 ovarian): > 100 µM | GI50 (SNB-75 CNS): 402 nM | TGI (SNB-75 CNS): 2020 nM | GI50 (MDA-MB-468 breast): 276 nM | TGI (MDA-MB-468 breast): 595 nM | GI50 (786-0 renal): 825 nM | TGI (786-0 renal): > 100 µM | GI50 (MDA-MB-231 breast): 643 nM | TGI (MDA-MB-231 breast): 6.07 µM | GI50 (OVCAR-3 ovarian): 454 nM | TGI (OVCAR-3 ovarian): 2230 nM | GI50 (UO-31 renal): 1130 nM | TGI (UO-31 renal): > 100 µM | GI50 (SF-295 CNS): 426 nM | TGI (SF-295 CNS): 1660 nM | GI50 (M14 melanoma): 488 nM | TGI (M14 melanoma): 23 µM | GI50 (A549 NSCLC): 411 nM | TGI (A549 NSCLC): > 100 µM | GI50 (NCI-H322M lung): 799 nM | TGI (NCI-H322M lung): > 100 µM | GI50 (SK-MEL-28 melanoma): 387 nM | TGI (SK-MEL-28 melanoma): 20 µM | GI50 (HL-60(TB) leukemia): 189 nM | TGI (HL-60(TB) leukemia): 405 nM | GI50 (CAKI-1 renal): 767 nM | TGI (CAKI-1 renal): > 100 µM | GI50 (UACC-62 melanoma): 702 nM | TGI (UACC-62 melanoma): 3.24 µM | GI50 (OVCAR-4 ovarian): 6.01 µM | TGI (OVCAR-4 ovarian): > 100 µM | GI50 (NCI/ADR-RES ovarian): 16.9 µM | TGI (NCI/ADR-RES ovarian): 75.4 µM | GI50 (SK-MEL-5 melanoma): 532 nM | TGI (SK-MEL-5 melanoma): 39.1 µM | GI50 (MDA-MB-435 melanoma): 653 nM | TGI (MDA-MB-435 melanoma): > 100 µM | GI50 (MCF7 breast): 305 nM | TGI (MCF7 breast): > 100 µM | GI50 (A498 renal): 1110 nM | TGI (A498 renal): > 100 µM | GI50 (RXF 393 renal): 236 nM | TGI (RXF 393 renal): 614 nM | GI50 (TK-10 renal): 487 nM | TGI (TK-10 renal): > 100 µM | GI50 (HS 578T breast): 418 nM | TGI (HS 578T breast): 2230 nM
